From patent US10940139B2, “Compounds that interact with the Ras superfamily for the treatment of cancers, inflammatory diseases, rasopathies, and fibrotic disease” (Shy Therapeutics LLC, priority 2017, dated 2021)

Target: KRas G12D/Q61H double mutant (Homo sapiens (Human), UniProt P01116, G12D/Q61H)
Test: Ras GTP binding domain inhibition assay (labeled GTP)
Settings: 20 μM compound; KRas G12D/Q61H double mutant; read-out: % Inhibition at 20 μM of K-Ras mutant and wild-type protein, KRas G12D Q61H
Protocol: Buffer-I: • 50 mM Tris, pH 7.5 • 150 mM NaCl (optional) • 1 mM MgCl2 • 1 mM DTT. • KRas G12D mutant protein was expressed as a His-tagged protein. Purified His-KRas G12D protein was diluted in buffer-I to a final concentration of 3-10 μg/ml. • 200 μl of the diluted His-KRas G12D protein was added to a nickel coated 96 well plate and incubated overnight at 4° C. • The next day, wells were washed 3× in 200 μl of Buffer-I. • Then 200 μl of Buffer-I were added to each well in the presence of 1% DMSO. • Tested compounds were added to the protein-coated wells at a concentration of 20 μM, and incubated for 3 hours at room temperature. While performing IC50 measurements a serial dilution of all tested concentrations was prepared.
Then 22 μl of Cy3-GTP or Cy5-GTP was added to each well. The labeled GTP was incubated for 45 min. at room temperature. • Following GTP incubation, wells were washed 3× in Buffer-I, and 200 μl of Buffer-I were added to each well. • Following washes, the amount of bound labeled-GTP was measured with an Eppendorf AF2200 plate reader.
By substituting KRas G12D mutant protein with KRas G12C mutant, KRas wild type, KRas Q61H mutant, KRas G12D/Q61H double mutant or KRas G12C/Q61H double mutant under the assay conditions described above, KRas G12C mutant KRas wild type, KRas Q61H mutant, KRas G12D/Q61H double mutant and KRas G12C/Q61H double mutant inhibition, respectively, were each determined.

KRas G12D/Q61H double mutant, sequence (P01116-2 other isoform, or with tags, fused parts or gaps G12D/Q61H): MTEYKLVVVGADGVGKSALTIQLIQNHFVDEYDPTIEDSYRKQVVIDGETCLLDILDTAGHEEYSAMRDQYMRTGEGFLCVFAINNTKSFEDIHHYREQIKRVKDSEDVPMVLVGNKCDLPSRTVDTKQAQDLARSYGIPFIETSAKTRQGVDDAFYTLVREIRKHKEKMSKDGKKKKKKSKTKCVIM

Structure (SMILES) | inhibition at 20 µM [%]
COc1ccc(-c2cc(NC(=O)C3CC(=O)N(C(C)c4ccccc4)C3)ccc2OC)cc1 (centres unmarked) | 1 to 25
FC(F)Oc1ccc(N2CCOC(c3ccc(Br)cc3)C2)nc1 (centres unmarked) | 25 to 50
COC(=O)c1cc(NCc2cnc(C(C)(C)C)s2)ccc1Br | 25 to 50
CC1CCCN(S(=O)(=O)c2ccc(NCc3ccc(C(=O)N(C)C(C)C)cc3)c([N+](=O)[O-])c2)C1 (centres unmarked) | 25 to 50
COC(=O)C1CCN(S(=O)(=O)NCCOc2ccc(C(C)(C)C)cc2)CC1 | 25 to 50
CCCN(CC1CC1)C(=O)COC(=O)c1c(C)nc(-c2cccs2)nc1SC | 1 to 25
CCOC(=O)c1c(-c2ccc(Br)cc2)csc1/N=C/N(C)C | 25 to 50
CC1CC1COC(=O)c1sccc1S(=O)(=O)N1CCSCC1 (centres unmarked) | 25 to 50
O=C(Cc1ccc2c(c1)OCCO2)Nc1nc(-c2ccccn2)cs1 [drawing 3246] | 1 to 25
CC(CC(N)=O)Nc1cc(C(F)(F)F)nc(-c2ccccn2)n1 (centres unmarked) | 1 to 25
Cc1ccc(S(=O)(=O)N2CCN(C(=O)CNC(=O)c3ncccc3O)CC2)s1 | 25 to 50
CCC(C)N(C(=O)CS(=O)(=O)c1nc(-c2ccccc2)cs1)C(C)CC (centres unmarked) | 25 to 50
CN(C)S(=O)(=O)c1cccc(CSCCOc2cccc(Cl)c2)c1 | 25 to 50
Cc1ccc(Sc2ccc(S(=O)(=O)NC3CCCC3)cc2)cc1C | 1 to 25
O=C(Oc1ccc(Oc2ccccc2)cc1)c1ccccc1-c1ccc(C(F)(F)F)cc1 | 25 to 50

More lines, now with the values ahead:

inhibition at 20 µM [%] | Structure (SMILES)
25 to 50 | CCCOc1ccc2ccccc2c1CN(C)C(=O)C1CCCN(c2ncccn2)C1 (centres unmarked)
25 to 50 | CC(=O)c1c(F)cccc1N1CCN(c2cccc(C(F)(F)F)c2)CC1
51 to 75 | C=CCn1c(C)cc(C(=O)COC(=O)c2ccccc2Oc2ccccc2)c1C
1 to 25 | Cc1ccc(OS(=O)(=O)NCCC(c2ccccc2)c2ccccc2)cc1
51 to 75 | CCN(CCNC(=O)c1oc(-c2ccccc2)nc1C)c1ccccc1C

Same assay, conditions: 20 μM compound; read-out: % Inhibition at 20 μM KRas G12D Q61H

Structure (SMILES) | inhibition at 20 µM [%]
Oc1nc(-c2ccccn2)nc2c1ncn2-c1ccccn1 [drawing 2698] | 25 to 50
Cc1nc(C2CCCN2c2nccc(C(F)(F)F)n2)no1 (centres unmarked) | 25 to 50
COc1ccc(CCC(=O)Nc2nnc(-c3ccccn3)[nH]2)cc1OC | 25 to 50
O=C(CCNc1ncccn1)Nc1nnc(-c2ccccn2)[nH]1 | 25 to 50
Cc1cccc(-c2nnc(NC(=O)C3Cc4cc(F)ccc4O3)[nH]2)n1 (centres unmarked) | 25 to 50
Cc1cc(C)n2nc(CC(=O)N(Cc3ccc(F)cc3)C3CC3)nc2n1 | 1 to 25
CCN(CC(=O)Nc1ccc(OC)cc1)Cc1coc(-c2ccc(C)cc2C)n1 | 25 to 50
Cc1ccc(-c2c(C)sc3nc(-c4cnccn4)[nH]c(=O)c23)cc1 | 25 to 50
Nc1nc(O)c2scc(C(=O)N3CCC(N4CCOCC4)CC3)c2n1 [drawing 2662] | 1 to 25
CCN(CCC(=O)OC)c1nc(-c2ccccn2)nc2c1CCC2 | 25 to 50
COc1c(C)cnc(CN2CCCCC2c2ncc[nH]2)c1C (centres unmarked) | 25 to 50
OC[C@H]1C=C[C@@H](Nc2nc(-c3ccccn3)nc3c2CCC3)C1 | 25 to 50
Cc1nc(-c2ccccn2)nc(O)c1CCC(=O)N(C)c1cccc(C#N)c1 | 25 to 50
CCOC(=O)NC1CCN(C(=O)c2csc3c(O)nc(-c4ccccn4)nc23)CC1 [drawing 2685] | 51 to 75
O=C(CCCNc1ncccn1)Nc1nnc(-c2ccccn2)[nH]1 | 25 to 50
CCOC(=O)CCN(Cc1cccnc1)c1nc(C(F)(F)F)ccc1C#N | 1 to 25
CCOCCCNC(=O)c1cc(S(=O)(=O)N(CC)CC)ccc1NCCOC | 1 to 25
Nc1nc(O)c2scc(C(=O)N(CCO)CCOCCO)c2n1 [drawing 2669] | 1 to 25
COc1ccc(-c2nc(C(=O)NC(C)c3ccccn3)cs2)cc1 (centres unmarked) | 25 to 50
O=C(Nc1nnc(-c2ccccn2)[nH]1)C(F)(F)c1ccccc1 | 25 to 50
Cc1cc(C)n2nc(CC(=O)N(Cc3ccccc3F)C3CC3)nc2n1 | 25 to 50
O=C(c1csc2c(O)nc(-c3ccccn3)nc12)N1CCOC(c2ccc(Cl)cc2)C1 (centres unmarked) [drawing 2730] | 25 to 50
COCC1CCN(C(=O)c2csc3c(O)nc(-c4ccccn4)nc23)CC1 [drawing 2675] | 25 to 50

Continued, values first:

inhibition at 20 µM [%] | Structure (SMILES)
25 to 50 | Cc1ccccc1OCCn1c(CN2CCCCC2)nc2ccccc21
25 to 50 | Cc1sc(NC2CCCCC2)nc1-c1ccc(F)c(F)c1
1 to 25 | C=CCNC(=O)CN1CCOC(c2nc(-c3ccccc3)cs2)C1 (centres unmarked)
1 to 25 | COC(=O)c1ccc(C(=O)NCC(c2ccccc2)N2CCOCC2)nc1 (centres unmarked)
25 to 50 | COc1ccc(CN2CCN(C(=O)c3csc4c(O)nc(-c5ccccn5)nc34)CC2)cc1OC
25 to 50 | COc1ccccc1CC(=O)Nc1nnc(-c2ccccn2)[nH]1
25 to 50 | OCC1CCCN(c2nc(-c3ccccn3)nc3scc(-c4ccccc4)c23)C1 (centres unmarked)
1 to 25 | COCc1ccc(C(=O)N(Cc2cccs2)Cc2ccccc2OC)cc1
1 to 25 | CC(C)COC(C)c1noc(CN(Cc2ccccc2O)C(C)c2ccccc2)n1 (centres unmarked)
25 to 50 | Cc1cnc(-c2ccccn2)nc1NC(=O)COCc1ccc(C#N)cc1 [drawing 2815]
1 to 25 | O=C(CCN1C(=O)NC2(CCCCC2)C1=O)Nc1nnc(-c2ccccn2)[nH]1
25 to 50 | Cc1ccc(C)c(NC(=O)c2ccccc2OCCOc2ccccc2)c1
25 to 50 | Cc1nc(C2CN(Cc3ccccc3F)CCO2)no1 (centres unmarked)
0 | O=S(=O)(CCc1ccccc1)N1CCCc2c(O)nc(-c3ccccn3)nc21 [drawing 2651]
25 to 50 | O=C(Nc1nnc(-c2ccccn2)[nH]1)c1ccc(Cn2ccccc2=O)o1
25 to 50 | Cc1cccc(C(=O)Nc2ccc(OS(=O)(=O)N3CCc4ccccc4C3)cc2)c1
1 to 25 | CN(Cc1ccco1)C(=O)c1ccc(COc2ccccc2)o1
25 to 50 | O=C(Nc1nnc(-c2ccccn2)[nH]1)c1ccc(N2CCCCC2=O)cc1
25 to 50 | C=CCc1ccc(OCCn2c(CN3CCOCC3)nc3ccccc32)c(OC)c1
25 to 50 | COCC(O)CN1CCC(Nc2nc(-c3ccccn3)nc3c2CCC3)CC1 (centres unmarked)
25 to 50 | O=C(c1ccccc1)N1CCCc2c(O)nc(-c3ccccn3)nc21
1 to 25 | O=C(c1nccc2ccccc12)N(Cc1nccn1C(F)F)C1CC1

Same assay, conditions: 20 μM; read-out: KRas G12D Q61H % Inh.

Structure (SMILES) | inhibition at 20 µM [%]
O=C(CC1CCCC1)NCC(=O)Nc1nnc(-c2ccccn2)[nH]1 [drawing 2500] | 51 to 75
Cn1cc(-c2nc(C(=O)Nc3nnc(-c4ccccn4)[nH]3)cs2)cn1 [drawing 2474] | 76 to 100
N#CC1(c2ccc(C(=O)N3CCCC3CO)cc2)CC1 (centres unmarked) [drawing 2632] | 76 to 100
O=C(Cc1cccc(F)c1)Nc1nc(-c2ccccn2)cs1 [drawing 2577] | 25 to 50
Cc1ccc(CC(=O)Nc2nnc(-c3ccccn3)[nH]2)cn1 [drawing 2506] | 51 to 75
Cc1nc(-c2ccccn2)sc1C(=O)Nc1nnc(-c2ccccn2)[nH]1 [drawing 2532] | 51 to 75
CC(C)C(=O)Nc1nc(CC(=O)Nc2nnc(-c3ccccn3)[nH]2)cs1 [drawing 2541] | 51 to 75
O=C(CCNC(=O)c1ccco1)Nc1nnc(-c2ccccn2)[nH]1 [drawing 2503] | 51 to 75
O=C(Nc1nnc(-c2ccccn2)[nH]1)c1ccn(-c2cccc(F)c2)n1 [drawing 2468] | 51 to 75
COC(=O)c1cc(NC(=O)CCc2c(C)nc(-c3ccccn3)nc2O)ccc1Cl [drawing 2600] | 51 to 75

The remaining lines, values ahead:

inhibition at 20 µM [%] | Structure (SMILES)
76 to 100 | COc1cn(-c2ccccc2)nc1C(=O)Nc1nnc(-c2ccccn2)[nH]1 [drawing 2557]
51 to 75 | O=C(Cc1ccccc1)NCCC(=O)Nc1nnc(-c2ccccn2)[nH]1 [drawing 2495]
51 to 75 | COc1ccc(NC(=O)CCc2c(C)nc(-c3ccccn3)nc2O)cn1 [drawing 2594]
51 to 75 | COc1cccc(CC(=O)Nc2nnc(-c3ccccn3)[nH]2)c1 [drawing 2460]
25 to 50 | Cc1nc(-c2ccccn2)nc(O)c1CCC(=O)Nc1cccc(OCC(=O)N2CCCC2)c1 [drawing 2601]
51 to 75 | CC(Oc1ccccc1C#N)C(=O)Nc1nnc(-c2ccccn2)[nH]1 (centres unmarked) [drawing 2510]
51 to 75 | Cc1ccc(O)c(CN(C)Cc2nccn2Cc2ccccc2)n1 [drawing 2615]
51 to 75 | CC(OCc1ccccc1)C(=O)Nc1nnc(-c2ccccn2)[nH]1 (centres unmarked) [drawing 2516]
51 to 75 | O=C(Nc1nnc(-c2ccccn2)[nH]1)c1cccc(N2CCCS2(=O)=O)c1 [drawing 2540]
76 to 100 | COc1ccc(COCC(=O)N2CCCc3c(O)nc(-c4ccccn4)nc32)cc1 [drawing 2639]

Same assay, conditions: read-out: KRas G12D Q61H IC50

IC50 [µM] | Structure (SMILES)
< 5 | COc1ccc(COCC(=O)N2CCCc3c(O)nc(-c4ccccn4)nc32)cc1 [drawing 2639]
